We go through eight compounds from ChEMBL document CHEMBL3045458, “Design, synthesis and biological evaluation of novel arylidine-malononitrile derivatives as non-carboxylic inhibitors of protein tyrosine phosphatase 1B” (Med Chem Res, 2013).

The target in data set [1] is T1, Tyrosine-protein phosphatase non-receptor type 1 (Homo sapiens) (UniProt P18031).
T1 sequence (whole entry): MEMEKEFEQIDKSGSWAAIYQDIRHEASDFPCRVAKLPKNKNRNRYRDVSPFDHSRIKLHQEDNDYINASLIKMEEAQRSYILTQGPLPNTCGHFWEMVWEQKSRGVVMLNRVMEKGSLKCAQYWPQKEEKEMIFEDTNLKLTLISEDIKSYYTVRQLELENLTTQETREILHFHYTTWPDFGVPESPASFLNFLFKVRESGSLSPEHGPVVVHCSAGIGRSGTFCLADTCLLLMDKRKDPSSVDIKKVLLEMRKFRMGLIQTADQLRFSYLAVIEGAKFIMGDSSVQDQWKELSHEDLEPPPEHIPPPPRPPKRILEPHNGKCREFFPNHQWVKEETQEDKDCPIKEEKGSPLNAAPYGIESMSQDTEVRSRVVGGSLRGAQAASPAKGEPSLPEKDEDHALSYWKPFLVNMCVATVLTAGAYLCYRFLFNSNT
The data set can be described thus: Inhibition of PTP1B (unknown origin) at 10 uM.

Another data set deals with L6 (Rattus norvegicus). The data set can be described thus: Glucose uptake in Rattus norvegicus (rat) L6 cells at 50 uM.
The species named for data set [2] is Danio rerio. Put plainly: Toxicity in Danio rerio (zebrafish) embryo assessed as mortality at 10 uM after 24 to 72 hr by light microscopic analysis relative to control. The format is organism-based. Particulars: in vivo.
For data set [3], the system named is Danio rerio. The data set can be described thus: Toxicity in Danio rerio (zebrafish) embryo assessed as oedema at 10 uM after 24 to 72 hr by light microscopic analysis relative to control. The format is organism-based. The following applies: in vivo.
The species entered for data set [4] is Danio rerio. The data set can be described thus: Toxicity in Danio rerio (zebrafish) embryo assessed as deformations at 10 uM after 24 to 72 hr by light microscopic analysis relative to control. Format: organism-based. The following applies: in vivo.
The species named for data set [5] is Danio rerio. Put plainly: Toxicity in Danio rerio (zebrafish) embryo assessed as developmental delays at 10 uM after 24 to 72 hr by light microscopic analysis relative to control. Format: organism-based. The following applies: in vivo.

In data set [1], `N#CC(C#N)=Cc1ccc(OCCSc2nnc(-c3ccc(F)cc3)o2)cc1` registered an inhibition of 30.4%. Moreover, the glucose uptake in the data set with L6 (Rattus norvegicus) was 13.3%.

Consider `N#CC(C#N)=Cc1ccc(OCCSc2nnc(-c3ccccc3)o2)cc1`, for which the Activity result in the data set filed under Danio rerio [2], in the data set on Danio rerio [3], in the data set filed under Danio rerio [4] and in the data set listed under Danio rerio [5] was “Non-toxic” each time. In data set [1], this compound returned an inhibition of 54.6%. The compound also showed a glucose uptake with L6 (Rattus norvegicus) of 25.3%.

Take `N#CC(C#N)=Cc1ccc(OCCSc2nnc(-c3ccc(Cl)cc3)o2)cc1`: the inhibition in data set [1] worked out at 34.3%. Besides, in the data set on L6 (Rattus norvegicus), the glucose uptake amounted to 24.2%.

In data set [1], `COc1cccc(-c2nnc(SCCOc3ccc(C=C(C#N)C#N)cc3)o2)c1` showed an inhibition of 39%. In the data set with L6 (Rattus norvegicus), this compound had a glucose uptake of 13.5%.

In the case of `Cc1ccc(-c2nnc(SCCOc3ccc(C=C(C#N)C#N)cc3)o2)cc1`, in data set [1], the inhibition was determined as 44.5%. For the same compound, the glucose uptake in the data set with L6 (Rattus norvegicus) was found to be 18.8%.

`N#CC(C#N)=Cc1ccc(OCCSc2nnc(-c3cccc([N+](=O)[O-])c3)o2)cc1`: the inhibition in data set [1] worked out at 41.4%. In addition, in the data set on L6 (Rattus norvegicus), the glucose uptake came out at 11.8%.

For `COc1ccccc1-c1nnc(SCCOc2ccc(C=C(C#N)C#N)cc2)o1`, the Activity result in the data set filed under Danio rerio [2], in the data set on Danio rerio [3], in the data set filed under Danio rerio [4] and in the data set filed under Danio rerio [5] was “Non-toxic” in each case. In addition, the inhibition in data set [1] amounted to 50%. This compound returned a glucose uptake in the data set with L6 (Rattus norvegicus) of 38.5%.

In data set [1], `N#CC(C#N)=Cc1ccc(OCCSc2nnc(-c3ccccc3Cl)o2)cc1` returned an inhibition of 23.4%. In the data set with L6 (Rattus norvegicus), this compound registered a glucose uptake of 26.6%.

A word on the inhibition: it is the drop in the measured response relative to a control, in per cent.
